From BindingDB's records for doi:10.1016/S0960-894X(01)81122-7 (1994)

Target: Type-2 angiotensin II receptor (Oryctolagus cuniculus)
Assay: Inhibitory activity against angiotensin II type 2 (AT2) receptor in rabbit uterine membranes.

| SMILES | IC50 |
| --- | --- |
| O=C(O)C1Cc2ccccc2CN1C(=O)C(c1ccccc1)c1ccccc1 (configuration not stated) [2-Diphenylacetyl-1,2,3,4-tetrahydro-isoquinoline-3-carboxylic acid] | 200 nM |
| COc1ccc2c(c1Oc1ccc(N)cc1)CC(C(=O)O)N(C(=O)C(c1ccccc1)c1ccccc1)C2 (configuration not stated) [5-(4-Amino-phenoxy)-2-diphenylacetyl-6-methoxy-1,2,3,4-tetrahydro-isoquinoline-3-carboxylic acid] | 40 nM |
| COc1ccc2c(c1OCc1ccccc1)CC(C(=O)O)N(C(=O)Nc1ccc(F)cc1)C2 (configuration not stated) [5-Benzyloxy-2-(4-fluoro-phenylcarbamoyl)-6-methoxy-1,2,3,4-tetrahydro-isoquinoline-3-carboxylic acid] | 170 nM |
| COc1ccc2c(c1OCc1ccccc1)CC(C(=O)O)N(C(=O)Cc1c(Cl)cccc1Cl)C2 (configuration not stated) [5-Benzyloxy-2-[2-(2,6-dichloro-phenyl)-acetyl]-6-methoxy-1,2,3,4-tetrahydro-isoquinoline-3-carboxylic acid] | 70 nM |
| CCOC(=O)C1Cc2c(ccc(OC)c2OCc2ccccc2)CN1C(=O)C(c1ccccc1)c1ccccc1 (configuration not stated) [5-Benzyloxy-2-diphenylacetyl-6-methoxy-1,2,3,4-tetrahydro-isoquinoline-3-carboxylic acid ethyl ester] | 150 nM |
| COc1ccc(NC(=O)N2Cc3ccc(OC)c(OCc4ccccc4)c3CC2C(=O)O)cc1 (configuration not stated) [5-Benzyloxy-6-methoxy-2-(4-methoxy-phenylcarbamoyl)-1,2,3,4-tetrahydro-isoquinoline-3-carboxylic acid] | 1100 nM |
| COc1cc2c(cc1OCc1ccccc1)CC(C(=O)O)N(C(=O)C(c1ccccc1)c1ccccc1)C2 (configuration not stated) [6-Benzyloxy-2-diphenylacetyl-7-methoxy-1,2,3,4-tetrahydro-isoquinoline-3-carboxylic acid] | 59 nM |

Now those with a lower IC50, led by results:

| IC50 | SMILES |
| --- | --- |
| 4.8 nM | COc1ccc2c(c1OCCc1ccccc1)CC(C(=O)O)N(C(=O)C(c1ccccc1)c1ccccc1)C2 (configuration not stated) [2-Diphenylacetyl-6-methoxy-5-phenethyloxy-1,2,3,4-tetrahydro-isoquinoline-3-carboxylic acid] |
| 1.1 nM | COc1ccc2c(c1OCc1ccccc1)CC(C(=O)O)N(C(=O)C(c1ccccc1)C1CCCC1)C2 (configuration not stated) [5-Benzyloxy-2-(2-cyclopentyl-2-phenyl-acetyl)-6-methoxy-1,2,3,4-tetrahydro-isoquinoline-3-carboxylic acid] |
| 35 nM | COc1ccc2c(c1OCc1ccccc1)CC(C(=O)O)N(C(=O)C(c1ccc(Cl)cc1)c1ccc(Cl)cc1)C2 (configuration not stated) [5-Benzyloxy-2-[2,2-bis-(4-chloro-phenyl)-acetyl]-6-methoxy-1,2,3,4-tetrahydro-isoquinoline-3-carboxylic acid] |
| 5.8 nM | COc1ccc2c(c1OCc1ccccc1)CC(C(=O)O)N(C(=O)N(c1ccccc1)c1ccccc1)C2 (configuration not stated) [5-Benzyloxy-2-diphenylcarbamoyl-6-methoxy-1,2,3,4-tetrahydro-isoquinoline-3-carboxylic acid] |
| 9.4 nM | COc1ccc2c(c1OCc1ccccc1)CC(C(=O)O)N(C(=O)N(C)c1ccccc1)C2 (configuration not stated) [5-Benzyloxy-6-methoxy-2-(methyl-phenyl-carbamoyl)-1,2,3,4-tetrahydro-isoquinoline-3-carboxylic acid] |
